Results: the NIST ThermoML archive (doi:10.1007/s10765-010-0766-0)
Numbers after ± are expanded uncertainties.

Assay: molar heat capacity at constant volume; wn = mass fraction of the nth substance listed
Conditions: Liquid, Vacuum adiabatic calorimetry, w2 = 0.4981

FC(F)C(F)(F)F [pentafluoroethane] + FCF
Conditions	molar heat capacity at constant volume [J/K/mol]
357.15 K, 9042 kPa	82.22 ± 3.7
357.15 K, 9048 kPa	82.43 ± 3.7
357.15 K, 16243 kPa	68.41 ± 3.1
357.15 K, 16254 kPa	69.93 ± 3.1
357.15 K, 16277 kPa	69.42 ± 3.1
358.15 K, 9284 kPa	81.71 ± 3.7
358.15 K, 9290 kPa	83.6 ± 3.8
358.15 K, 16617 kPa	69.79 ± 3.1
358.15 K, 16628 kPa	70.73 ± 3.2
358.15 K, 16652 kPa	69.13 ± 3.1
359.15 K, 9527 kPa	82.29 ± 3.7
359.15 K, 9532 kPa	83.09 ± 3.8
359.15 K, 16990 kPa	69.86 ± 3.1
359.15 K, 17003 kPa	71.24 ± 3.2
359.15 K, 17027 kPa	67.9 ± 3.1
360.15 K, 9770 kPa	82.07 ± 3.7
360.15 K, 9775 kPa	82.29 ± 3.7
360.15 K, 17365 kPa	69.42 ± 3.1
360.15 K, 17377 kPa	68.55 ± 3.1
360.15 K, 17401 kPa	69.64 ± 3.1
361.15 K, 10013 kPa	81.2 ± 3.6
361.15 K, 10019 kPa	82.73 ± 3.7
361.15 K, 17739 kPa	70.08 ± 3.3
361.15 K, 17752 kPa	71.46 ± 3.2
361.15 K, 17776 kPa	68.48 ± 3.2
362.15 K, 10256 kPa	82.65 ± 3.7
362.15 K, 10262 kPa	83.31 ± 3.8
362.15 K, 18113 kPa	69.42 ± 3.1
362.15 K, 18127 kPa	71.17 ± 3.2
362.15 K, 18151 kPa	69.06 ± 3.1
363.15 K, 10501 kPa	80.69 ± 3.6
363.15 K, 10506 kPa	82.22 ± 3.7
363.15 K, 18487 kPa	70.59 ± 3.2
363.15 K, 18501 kPa	69.57 ± 3.2
363.15 K, 18526 kPa	69.79 ± 3.2
364.15 K, 10745 kPa	81.78 ± 3.7
364.15 K, 10751 kPa	81.56 ± 3.7
364.15 K, 18862 kPa	69.2 ± 3.1
364.15 K, 18876 kPa	70.8 ± 3.2
364.15 K, 18899 kPa	68.91 ± 3.1
365.15 K, 10990 kPa	81.49 ± 3.7
365.15 K, 10996 kPa	82.29 ± 3.7
365.15 K, 19236 kPa	69.57 ± 3.1
365.15 K, 19250 kPa	69.79 ± 3.1
365.15 K, 19274 kPa	70.08 ± 3.2
366.15 K, 11235 kPa	80.04 ± 3.6
366.15 K, 11241 kPa	81.78 ± 3.7
366.15 K, 19610 kPa	70 ± 3.2
366.15 K, 19625 kPa	70.22 ± 3.2
366.15 K, 19649 kPa	68.99 ± 3.1
367.15 K, 11480 kPa	81.49 ± 3.7
367.15 K, 11486 kPa	81.93 ± 3.7
367.15 K, 19985 kPa	69.06 ± 3.1
367.15 K, 20000 kPa	69.86 ± 3.1
367.15 K, 20025 kPa	68.48 ± 3.1
368.15 K, 11726 kPa	81.42 ± 3.6
368.15 K, 11732 kPa	82.07 ± 3.7
368.15 K, 20360 kPa	69.35 ± 3.1
368.15 K, 20375 kPa	69.71 ± 3.1
368.15 K, 20400 kPa	68.77 ± 3.1
369.15 K, 11972 kPa	79.89 ± 3.6
369.15 K, 11979 kPa	82.73 ± 3.7
369.15 K, 20734 kPa	69.42 ± 3.1
369.15 K, 20750 kPa	70 ± 3.1
369.15 K, 20776 kPa	68.7 ± 3.1
370.15 K, 12219 kPa	80.69 ± 3.6
370.15 K, 12225 kPa	80.76 ± 3.6
370.15 K, 21109 kPa	70.8 ± 3.2
370.15 K, 21125 kPa	69.35 ± 3.1
370.15 K, 21150 kPa	69.2 ± 3.1
371.15 K, 12465 kPa	80.25 ± 3.6
371.15 K, 12472 kPa	82.07 ± 3.7
371.15 K, 21484 kPa	70.3 ± 3.2
371.15 K, 21500 kPa	71.82 ± 3.4
371.15 K, 21525 kPa	68.55 ± 3.1
372.15 K, 12712 kPa	80.11 ± 3.6
372.15 K, 12719 kPa	81.78 ± 3.7
372.15 K, 21859 kPa	70.44 ± 3.2
372.15 K, 21875 kPa	69.64 ± 3.1
372.15 K, 21901 kPa	69.42 ± 3.1
373.15 K, 12959 kPa	80.91 ± 3.6
373.15 K, 12966 kPa	82.43 ± 3.7
373.15 K, 22234 kPa	69.86 ± 3.1
373.15 K, 22250 kPa	71.17 ± 3.3
373.15 K, 22277 kPa	69.57 ± 3.1
374.15 K, 13207 kPa	80.11 ± 3.6
374.15 K, 13213 kPa	81.71 ± 3.7
374.15 K, 22609 kPa	70.59 ± 3.2
374.15 K, 22625 kPa	70.37 ± 3.2
374.15 K, 22654 kPa	69.2 ± 3.1
375.15 K, 13454 kPa	80.04 ± 3.6
375.15 K, 13461 kPa	81.85 ± 3.7
375.15 K, 22984 kPa	71.68 ± 3.3
375.15 K, 23000 kPa	72.33 ± 3.3
375.15 K, 23029 kPa	70.15 ± 3.2
376.15 K, 13702 kPa	80.76 ± 3.6
376.15 K, 13709 kPa	82.87 ± 3.7
376.15 K, 23359 kPa	71.6 ± 3.3
376.15 K, 23375 kPa	71.02 ± 3.2
376.15 K, 23406 kPa	70.08 ± 3.2
377.15 K, 13950 kPa	82.14 ± 3.7
377.15 K, 13957 kPa	81.34 ± 3.6
377.15 K, 23734 kPa	71.24 ± 3.2
377.15 K, 23750 kPa	71.6 ± 3.2
377.15 K, 23780 kPa	70.88 ± 3.2
378.15 K, 14198 kPa	80.25 ± 3.6
378.15 K, 14205 kPa	80.18 ± 3.6
378.15 K, 24109 kPa	72.04 ± 3.3
378.15 K, 24125 kPa	71.82 ± 3.3
378.15 K, 24155 kPa	70.51 ± 3.2
379.15 K, 14447 kPa	81.2 ± 3.6
379.15 K, 14454 kPa	81.85 ± 3.7
379.15 K, 24484 kPa	72.04 ± 3.3
379.15 K, 24500 kPa	70.95 ± 3.2
379.15 K, 24531 kPa	70.22 ± 3.2
380.15 K, 14696 kPa	80.47 ± 3.6
380.15 K, 14702 kPa	80.84 ± 3.6
380.15 K, 24858 kPa	72.11 ± 3.3
380.15 K, 24875 kPa	71.6 ± 3.2
380.15 K, 24906 kPa	70.88 ± 3.2
381.15 K, 14944 kPa	80.54 ± 3.6
381.15 K, 14951 kPa	81.93 ± 3.7
381.15 K, 25233 kPa	72.33 ± 3.3
381.15 K, 25250 kPa	71.6 ± 3.3
381.15 K, 25282 kPa	68.91 ± 3.1
382.15 K, 15194 kPa	81.2 ± 3.6
382.15 K, 15200 kPa	81.2 ± 3.6
382.15 K, 25608 kPa	70.51 ± 3.2
382.15 K, 25625 kPa	71.75 ± 3.3
382.15 K, 25657 kPa	69.64 ± 3.1
383.15 K, 15443 kPa	80.18 ± 3.6
383.15 K, 15449 kPa	81.13 ± 3.6
383.15 K, 25983 kPa	72.33 ± 3.3
383.15 K, 26000 kPa	71.75 ± 3.3
383.15 K, 26033 kPa	69.93 ± 3.2
384.15 K, 15692 kPa	82.29 ± 3.7
384.15 K, 15699 kPa	80.62 ± 3.6
384.15 K, 26358 kPa	72.69 ± 3.3
384.15 K, 26375 kPa	72.84 ± 3.3
384.15 K, 26408 kPa	70 ± 3.2
385.15 K, 15942 kPa	79.6 ± 3.6
385.15 K, 15948 kPa	82.58 ± 3.7
385.15 K, 26733 kPa	72.55 ± 3.3
385.15 K, 26750 kPa	72.4 ± 3.3
385.15 K, 26784 kPa	69.28 ± 3.2
386.15 K, 16192 kPa	81.2 ± 3.6
386.15 K, 16198 kPa	83.09 ± 3.8
386.15 K, 27107 kPa	72.4 ± 3.3
386.15 K, 27125 kPa	72.77 ± 3.4
386.15 K, 27159 kPa	68.48 ± 3.1
387.15 K, 16442 kPa	79.31 ± 3.6
387.15 K, 16448 kPa	81.34 ± 3.6
387.15 K, 27482 kPa	73.57 ± 3.3
387.15 K, 27500 kPa	73.57 ± 3.4
387.15 K, 27533 kPa	70.66 ± 3.2
388.15 K, 16692 kPa	80.62 ± 3.6
388.15 K, 16698 kPa	82.51 ± 3.7
388.15 K, 27856 kPa	73.71 ± 3.4
388.15 K, 27874 kPa	73.71 ± 3.5
388.15 K, 27907 kPa	69.06 ± 3.2
389.15 K, 16942 kPa	80.76 ± 3.6
389.15 K, 16948 kPa	82.07 ± 3.7
389.15 K, 28231 kPa	74.08 ± 3.4
389.15 K, 28249 kPa	73.86 ± 3.4
389.15 K, 28282 kPa	70.22 ± 3.2
390.15 K, 17192 kPa	80.84 ± 3.6
390.15 K, 17198 kPa	83.74 ± 3.8
390.15 K, 28605 kPa	74.08 ± 3.4
390.15 K, 28624 kPa	74.73 ± 3.6
390.15 K, 28657 kPa	70.3 ± 3.2
391.15 K, 17442 kPa	81.05 ± 3.6
391.15 K, 17448 kPa	83.67 ± 3.8
391.15 K, 28979 kPa	73.78 ± 3.3
391.15 K, 28998 kPa	72.77 ± 3.3
391.15 K, 29032 kPa	70.44 ± 3.2
392.15 K, 17692 kPa	81.05 ± 3.6
392.15 K, 17698 kPa	81.34 ± 3.6
392.15 K, 29354 kPa	72.77 ± 3.3
392.15 K, 29373 kPa	71.31 ± 3.3
392.15 K, 29407 kPa	68.84 ± 3.1
393.15 K, 17943 kPa	79.38 ± 3.6
393.15 K, 17949 kPa	81.27 ± 3.6
393.15 K, 29728 kPa	74 ± 3.3
393.15 K, 29782 kPa	72.19 ± 3.3
394.15 K, 18193 kPa	82 ± 3.7
394.15 K, 18199 kPa	80.84 ± 3.6
395.15 K, 18444 kPa	80.18 ± 3.6
395.15 K, 18450 kPa	83.89 ± 3.8
396.15 K, 18701 kPa	80.62 ± 3.6
397.15 K, 18951 kPa	82.36 ± 3.7
